Experimental data reported in patent EP4703363A1, “SALT FORM AND CRYSTAL FORM OF THIENOPYRIMIDINE COMPOUND, AND PREPARATION METHOD THEREFOR AND USE THEREOF” (Shandong Luye Pharmaceutical Co., Ltd., priority 2023, dated 2024).
Each block holds one compound with its values, some of them ahead of it.

Key:
[1] = Caco-2 monolayer two-way permeability and efflux; assay type: in vitro ADME; conditions: human
Description: Instruments: water purification instrument, ELGA LabWate; biosafety cabinet, NUAIRE; thermostatic CO2 incubator, Thermo; microplate reader, PerkinElmer; LC-MS/MS, AB SCIEX.
Method: A Caco-2 monolayer cell model was used to determine the two-way permeability of the test substance and evaluate whether the test substance was transported via efflux by a transporter. In the experiment, Caco-2 cells were seeded into a 96-well cell culture plate and cultured for 28 consecutive days before a transport assay. The test substance was administered on two sides. After 120 min of incubation, samples of apical end A, basal end B, and the cell lysate were collected, and the content of the test substance in the samples was quantitatively determined using a liquid chromatography-tandem mass spectrometry (LC/MS/MS) method. The apparent permeability coefficients (Papp) in the direction from the apical end to the basal end (A-B) and in the direction from the basal end to the apical end (B-A) and the efflux ratio were calculated based on the concentration of the test substance. Table 15. The permeability of the compound of formula I in Caco-2 cells

human GnRHR [2] = target: T1, human GnRHR (Homo sapiens, UniProt P30968); assay: In vitro antagonistic activity screening (FLIPR fluorescence, Leuprolide acetate stimulation); assay type: cell-based; conditions: HEK293 cells stably expressing human GnRHR
T1 sequence (P30968 1-328): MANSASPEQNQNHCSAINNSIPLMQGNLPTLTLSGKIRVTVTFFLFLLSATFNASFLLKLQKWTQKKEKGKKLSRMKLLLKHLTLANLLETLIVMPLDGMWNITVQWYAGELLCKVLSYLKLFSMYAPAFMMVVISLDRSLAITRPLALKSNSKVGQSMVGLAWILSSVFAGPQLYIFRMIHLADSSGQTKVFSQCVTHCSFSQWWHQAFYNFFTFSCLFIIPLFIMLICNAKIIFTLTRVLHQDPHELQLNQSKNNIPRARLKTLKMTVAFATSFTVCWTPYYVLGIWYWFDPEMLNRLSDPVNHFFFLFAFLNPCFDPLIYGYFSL
Description: Cell: HEK293 cells stably expressing human GnRHR (WuXi AppTec (Shanghai) Co., Ltd.) Equipment: 384-well plate, Greiner; Vi-cell XR Cell Viability Analyzer, Beckman Coulter; incubator, Thermo.
Method: HEK293 cells stably expressing human GnRHR were seeded into a 384-well plate at a density of 20,000 cells/well. Fluo-4 DirectTM No-wash Loading Buffer (Invitrogen) was added to each well the next day, and then the plate was put back into an incubator, incubated at 37 °C for 50 min, and then incubated at room temperature for 10 min. […] Fluorescence was measured using a FLIPR Tetra high-throughput real-time fluorescence assay and analysis system. Then 10 µL of Leuprolide acetate was added, and fluorescence was measured. The IC50 and IC90 of the compound were calculated using Prism. Table 12. The in vitro antagonistic activity of the compound of formula I against human GnRHR

[3] = Pituitary tissue distribution in SD rats; assay type: in vivo; conditions: intragastric 12 mg/kg; for Kp at 1 h / Kp at 4 h / Kp at 12 h: male, rat, pituitary/plasma, oral
Description: (§1) Rats: SD rats, male, 200-250 g
(§2) Instruments: water purification instrument, Millipore; electronic balance, METTLER TOLEDO; highspeed benchtop centrifuge, Thermo; water bath thermostatic oscillator, Shanghai Yiheng Technical Co., Ltd.; vortex oscillator, Thermo; LC-MS/MS, AB SCIEX.
(§3) Method: Solutions of all compounds were prepared using DMSO and 20% solutol. In the pharmacokinetic experiment, the administration dose for the intravenous group (i.v) was 1 mg/kg, and the administration dose for the intragastric group (i.g) was 12 mg/kg; each group contained 3 rats. Blood was collected from the orbit of the rats before administration (0 h) and at set time points after administration. In the tissue distribution experimental group, the rats were intragastrically dosed at 12 mg/kg. […] The […] was placed in a heparinized EP tube and centrifuged at 13,500 rpm for 10 min to isolate the plasma. The pituitary was homogenized with water in a certain ratio. The plasma and pituitary homogenates were pre-treated and then analyzed by LC-MS/MS to determine the concentrations of the test substances in the plasma and the pituitary. The plasma drug concentration data were processed in a non-compartmental model using WinNonlin™ Version 6.3 (Pharsight, Mountain View, CA) pharmacokinetic software. […] Table 16-1. Pharmacokinetic parameters in SD rats after intravenous administration

[4] = In vivo pharmacokinetics in SD rats; conditions: for F: absolute bioavailability; for AUC(0-t) / C0 / MRT last / half-life / Cmax / Tmax: male, rat, plasma
Description: as §1, §2, §3

human GnRHR [5] = target: T1, human GnRHR; assay: In vitro binding screening ([125I]-[D-Trp6]-LH-RH displacement, Chem-1 cell membrane); design: host or cells: Chem-1 cells (membrane preparation)
Description: [D-Trp6]-LH-RH, PerkinElmer; [D-Trp6]-LH-RH, Abcam.
Equipment: MicroBeta2 LumiJET system, PerkinElmer.
1 µM [D-Trp6]-LH-RH was used in the non-specific binding assay. The cell membrane was collected by filtration under vacuum and washed before liquid scintillation. The binding IC50 and IC90 of the compound were calculated using Prism. Table 13. The in vitro binding activity of the compound of the present disclosure to human GnRHR

[6] = target: T2, human hERG potassium channel (Homo sapiens, UniProt Q12809); assay: hERG test (QPatch automated patch clamp, CHO cells); assay type: cell-based; conditions: CHO cells stably expressing human hERG potassium channel
T2 construct: host or cells: CHO
T2 sequence (Q12809 whole entry): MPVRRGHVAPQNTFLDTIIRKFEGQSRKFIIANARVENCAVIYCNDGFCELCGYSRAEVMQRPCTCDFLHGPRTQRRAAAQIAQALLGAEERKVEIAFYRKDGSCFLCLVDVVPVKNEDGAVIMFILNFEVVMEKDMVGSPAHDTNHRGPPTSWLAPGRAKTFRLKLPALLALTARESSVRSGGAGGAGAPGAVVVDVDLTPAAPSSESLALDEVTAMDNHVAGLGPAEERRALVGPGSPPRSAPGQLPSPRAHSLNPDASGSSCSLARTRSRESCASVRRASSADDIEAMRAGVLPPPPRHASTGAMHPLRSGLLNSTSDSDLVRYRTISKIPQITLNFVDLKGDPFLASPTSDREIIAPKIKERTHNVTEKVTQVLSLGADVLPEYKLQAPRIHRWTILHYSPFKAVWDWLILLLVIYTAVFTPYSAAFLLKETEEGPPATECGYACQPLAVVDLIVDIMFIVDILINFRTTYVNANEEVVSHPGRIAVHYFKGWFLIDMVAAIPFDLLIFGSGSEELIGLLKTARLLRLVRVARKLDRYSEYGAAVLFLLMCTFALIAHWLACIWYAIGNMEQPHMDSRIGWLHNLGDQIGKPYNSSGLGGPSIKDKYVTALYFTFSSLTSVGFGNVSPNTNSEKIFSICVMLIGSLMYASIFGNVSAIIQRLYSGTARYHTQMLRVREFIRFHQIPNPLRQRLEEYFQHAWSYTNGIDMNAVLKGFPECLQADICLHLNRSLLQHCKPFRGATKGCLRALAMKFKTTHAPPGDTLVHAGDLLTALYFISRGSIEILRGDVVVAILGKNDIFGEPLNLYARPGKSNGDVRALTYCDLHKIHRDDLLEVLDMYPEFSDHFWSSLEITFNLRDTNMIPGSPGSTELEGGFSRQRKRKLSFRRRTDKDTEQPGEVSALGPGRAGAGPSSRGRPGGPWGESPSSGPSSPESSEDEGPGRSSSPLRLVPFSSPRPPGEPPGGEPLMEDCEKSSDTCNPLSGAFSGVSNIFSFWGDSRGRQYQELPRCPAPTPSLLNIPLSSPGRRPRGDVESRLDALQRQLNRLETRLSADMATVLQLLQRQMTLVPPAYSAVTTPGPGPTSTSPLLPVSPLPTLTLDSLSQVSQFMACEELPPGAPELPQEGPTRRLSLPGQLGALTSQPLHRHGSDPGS
Description: Cell: CHO cells stably expressing a human hERG potassium channel (WuXi AppTec (Shanghai) Co., Ltd.)
Reagents: physiological solution (PH = 7.4): 140 mM NaCl, 4 mM KCl, 2 mM CaCl2, 1 mM MgCl2, 5 mM glucose, 10 mM HEPES, osmolarity: about 298 mOsm; external solution (PH = 7.4): 80 mM NaCl, 4 mM KCl, 2 mM CaCl2, 1 mM MgCl2, 5 mM glucose, 60 mM NMDG, 10 mM HEPES, osmolarity: about 289 mOsm; and internal solution (PH = 7.4): 10 mM NaCl, 10 mM KCl, 110 mM KF, 10 mM HEPES, EGTA: […], osmolarity: about 280 mOsm.
Equipment: QPatch high-throughput automated patch clamp system, Sophion.
Method: CHO cells stably expressing a human hERG potassium channel were digested with TrypLE and resuspended in the physiological solution for later use. The single-cell high-impedance sealing and whole-cell mode formation processes were automatically completed by Qpatch. The cells were clamped at a voltage of -80 mV, then a voltage of -50 mV was applied for 80 ms to subtract (current) leakage, and a voltage of +20 mV was applied for 4800 ms to open the hERG channel. The voltage was then reduced to -50 mV and maintained for 5000 ms. This process was used for data collection and analysis. Finally, the voltage was returned to the clamping voltage (-80 mV, 1000 ms). This process was repeated every 20,000 ms. […]

[7] = intragastric administration group

SMILES: CCNC(=O)Nc1ccc(-c2sc3c(c2CN(C)C)c(=O)n(-c2ccc(OC)nn2)c(=O)n3Cc2c(F)cccc2F)cn1 [Formula I]
- efflux ratio at 120 min ([1]; Caco-2): 294
- Papp A→B at 120 min ([1]; Caco-2, 120 min incubation, A to B): 0.0142 ×10⁻⁶ cm/s
- Papp B→A at 120 min ([1]; Caco-2, 120 min incubation, B to A): 4.19 ×10⁻⁶ cm/s
- IC50 (human GnRHR [2]; read-out: Functional IC50): 1.01 nM
- IC90 (human GnRHR [2]; read-out: Functional IC90): 7.55 nM
- Pituitary ([3]; 1 h): 2250±474
- Plasma ([3]; 1 h): 39.5±14.0
- concentration in the pituitary relative to Relugolix ([3]; 1 h): 2.38 times
- Pituitary ([3]; 4 h): 1841±636
- Plasma ([3]; 4 h): 22.8±2.5
- concentration in the pituitary relative to Relugolix ([3]; 4 h): 1.48 times
- Pituitary ([3]; 12 h): 1254±494
- Plasma ([3]; 12 h): 9.70±3.10
- concentration in the pituitary relative to Relugolix ([3]; 12 h): 2.46 times
- Kp at 1 h ([3]; 1 h): 56.9
- Kp at 4 h ([3]; 4 h): 80.8
- Kp at 12 h ([3]; 12 h): 129
- F ([4]; i.g 12 mg/kg): 19.9%
- AUClast relative to Relugolix [4, 7]: 2.45 times
- Cmax relative to Relugolix [4, 7]: 3.63 times
- AUC(0-t) ([4]; intravenous, i.v 1 mg/kg): 150 ± 12 ng·h/mL
- C0 ([4]; intravenous, i.v 1 mg/kg): 68.8 ± 21.7 ng/mL
- MRT last ([4]; intravenous, i.v 1 mg/kg): 5.41 ± 0.47 h
- half-life ([4]; intravenous, i.v 1 mg/kg): 383 ± 64.8 min
- AUC(0-t) ([4]; oral, i.g 12 mg/kg): 357 ± 85 ng·h/mL
- Cmax ([4]; oral, i.g 12 mg/kg): 78.5 ± 36.4 ng/mL
- MRT last ([4]; oral, i.g 12 mg/kg): 6.13 ± 1.1 h
- Tmax ([4]; oral, i.g 12 mg/kg): 22.8 ± 8.4 min
- half-life ([4]; oral, i.g 12 mg/kg): 259 ± 109 min
- IC50 (human GnRHR [5]): 0.64 nM
- IC90 (human GnRHR [5]): 2.67 nM
- IC50 [6]: 25.8 µM

- Kp at 1 h ([3]; 1 h): 42.4
- Kp at 4 h ([3]; 4 h): 76.3
- Kp at 12 h ([3]; 12 h): 161
- T1/2 ([4]; i.g 12 mg/kg): 3.88 ± 0.57 h
- F ([4]; i.g 12 mg/kg): 5.74%
- AUC(0-t) ([4]; intravenous, i.v 1 mg/kg): 212 ± 61 ng·h/mL
- C0 ([4]; intravenous, i.v 1 mg/kg): 339 ± 36 ng/mL
- MRT last ([4]; intravenous, i.v 1 mg/kg): 2.01 ± 0.92 h
- AUC(0-t) ([4]; oral, i.g 12 mg/kg): 146 ± 37 ng·h/mL
- Cmax ([4]; oral, i.g 12 mg/kg): 21.6 ± 8.3 ng/mL
- MRT last ([4]; oral, i.g 12 mg/kg): 5.68 ± 0.17 h
- Tmax ([4]; oral, i.g 12 mg/kg): 19.8 ± 8.4 min
SMILES: CONC(=O)Nc1ccc(-c2sc3c(c2CN(C)C)c(=O)n(-c2ccc(OC)nn2)c(=O)n3Cc2c(F)cccc2F)cc1 [Relugolix, reference compound]
